Laboratory results from the supplement of paper PMC11061612.

Assays:
Assay in all cases: Bliss excess, mean over the matrix (fraction); higher = more synergy
[1] = tested on: GP5d (Colorectal Carcinoma)
Procedure, shortened: (§1)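 Cell lines in DMEM/F12 or RPMI with 10% FBS were plated in 1536-well plates, held 24 hours at 37°C, 5% CO2, then given two-drug dose matrices for 72 hours (DMSO typically 0.2%). Viability was read by CellTiter-Glo 2.0 luminescence and scaled as inhibition from 0 (vehicle wells) to 1 (blank wells). Combination Emax is the second-highest inhibition in the matrix; Bliss excess is observed combination effect minus expected EA + EB − EA·EB, EA and EB being single-agent effects.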

[2] = tested on: SU-DHL-10 (B-Cell Non-Hodgkin's Lymphoma)
Procedure, shortened: as §1

[3] = tested on: PC-3_[JPC-3] (Lung Adenocarcinoma)
Procedure, shortened: as §1

[4] = tested on: FADU (Head and Neck Carcinoma)
Procedure, shortened: as §1

[5] = tested on: MFE-280 (Endometrial Carcinoma)
Procedure, shortened: as §1

[6] = tested on: RKN (Other Solid Carcinomas)
Procedure, shortened: as §1

[7] = tested on: LK-2 (Squamous Cell Lung Carcinoma)
Procedure, shortened: as §1

SF268 (Low Grade Glioma) = tested on: SF268 (Low Grade Glioma)
Procedure, shortened: as §1

[8] = tested on: PANC-03-27 (Pancreatic Carcinoma)
Procedure, shortened: as §1

WM793B (Melanoma) = tested on: WM793B (Melanoma)
Procedure, shortened: as §1

[9] = tested on: 23132-87 (Gastric Carcinoma)
Procedure, shortened: as §1

[10] = tested on: RCM-1 (Colorectal Carcinoma)
Procedure, shortened: as §1

[11] = tested on: COLO-680N (Esophageal Squamous Cell Carcinoma)
Procedure, shortened: as §1

[12] = tested on: VAL (B-Cell Non-Hodgkin's Lymphoma)
Procedure, shortened: as §1

[13] = tested on: MKN45 (Gastric Carcinoma)
Procedure, shortened: as §1

[14] = tested on: NCI-H23 (Lung Adenocarcinoma)
Procedure, shortened: as §1

LN-229 (Glioblastoma) = tested on: LN-229 (Glioblastoma)
Procedure, shortened: as §1

[15] = tested on: TE-8 (Esophageal Squamous Cell Carcinoma)
Procedure, shortened: as §1

[16] = tested on: LXF-289 (Lung Adenocarcinoma)
Procedure, shortened: as §1

[17] = tested on: OPM-2 (Plasma Cell Myeloma)
Procedure, shortened: as §1

Row | SMILES | Bliss excess [1] | Bliss excess [2] | Bliss excess [3] | Bliss excess [4] | Bliss excess [5] | Bliss excess [6] | Bliss excess [7] | Bliss excess (SF268 (Low Grade Glioma)) | Bliss excess [8] | Bliss excess (WM793B (Melanoma)) | Bliss excess [9] | Bliss excess [10] | Bliss excess [11] | Bliss excess [12] | Bliss excess [13] | Bliss excess [14] | Bliss excess (LN-229 (Glioblastoma)) | Bliss excess [15] | Bliss excess [16] | Bliss excess [17]
1 | COc1cccc(OCCCN)c1-c1cc(Nc2cnc(C#N)cn2)n[nH]1 [Prexasertib] + CN(C)CCCOc1ccc(-c2ccc3ncc4c(c3c2)n(C2CCOCC2)c(=O)n4C)cn1 [AZD0156] (first compound max 1 µM, 7x7, partner max 1 µM) | 0.0215 | -0.049 | -0.0526 | -0.0256 | -0.0219 | -0.0478 | -0.0181 | 0.0592 | -0.0704 | -0.0265 | -0.0009 | -0.0358 | -0.0393 | -0.0162 | -0.0645 | -0.0245 | -0.035 | -0.0033 | 0.0113 | 0.0204
2 | COc1cccc(OCCCN)c1-c1cc(Nc2cnc(C#N)cn2)n[nH]1 [Prexasertib] + C[C@@H]1COCCN1C2=NC(=NC(=C2)C3(CC3)[S@](=N)(=O)C)C4=C5C=CNC5=NC=C4 [AZD6738] (first compound max 1 µM, 7x7, partner max 10 µM) | -0.0157 | -0.0067 | 0.0576 | -0.0333 | -0.024 | -0.027 | -0.0182 | -0.0421 | -0.0577 | -0.05 | -0.0085 | -0.0307 | 0.0342 | -0.0637 | -0.0931 | -0.0504 | -0.0577 | -0.0122 | -0.0228 | -0.0663
3 | COc1cccc(OCCCN)c1-c1cc(Nc2cnc(C#N)cn2)n[nH]1 [Prexasertib] + Cc1cc2ncnn2cc1Nc1ncc2c(n1)n(C1CCOCC1)c(=O)n2C [AZD7648] (first compound max 1 µM, 7x7, partner max 10 µM) | 0.033 | -0.045 | -0.0103 | -0.0383 | 0.0032 | -0.0293 | -0.037 | 0.0078 | -0.0606 | -0.0169 | -0.0365 | -0.0166 | -0.0491 | -0.0204 | -0.0229 | -0.026 | -0.0596 | -0.0448 | -0.0006 | -0.0341
4 | COc1cccc(OCCCN)c1-c1cc(Nc2cnc(C#N)cn2)n[nH]1 [Prexasertib] + O=C(c1cc(Cc2n[nH]c(=O)c3ccccc23)ccc1F)N1CCN(C(=O)C2CC2)CC1 [Olaparib] (first compound max 1 µM, 7x7, partner max 10 µM) | -0.0179 | 0.0083 | -0.0525 | 0.0354 | -0.0223 | -0.0958 | -0.0249 | 0.0208 | -0.0102 | -0.0688 | -0.0503 | -0.196 | -0.0652 | -0.0518 | -0.044 | -0.0675 | -0.181 | -0.075 | -0.0569 | -0.0628
5 | COc1cc2c(cc1OCCCCCOc1cc3c(cc1OC)C(=O)N1C=C(C)C[C@H]1C=N3)N=C[C@@H]1CC(C)=CN1C2=O [SG3199] + O=C(c1cc(Cc2n[nH]c(=O)c3ccccc23)ccc1F)N1CCN(C(=O)C2CC2)CC1 [Olaparib] (first compound max 0.001 µM, 7x7, partner max 10 µM) | -0.0206 | -0.0177 | -0.0368 | -0.0009 | -0.0092 | -0.0377 | -0.0137 | -0.0297 | -0.062 | -0.0198 | 0.0217 | -0.0371 | -0.043 | -0.0069 | -0.0633 | 0.0008 | -0.0454 | -0.049 | -0.0358 | -0.047
6 | CCc1c2c(nc3ccc(O)cc13)-c1cc3c(c(=O)n1C2)COC(=O)[C@]3(O)CC [SN-38] + CN(C)CCCOc1ccc(-c2ccc3ncc4c(c3c2)n(C2CCOCC2)c(=O)n4C)cn1 [AZD0156] (first compound max 0.3 µM, 7x7, partner max 1 µM) | 0.0624 | -0.0242 | -0.0551 | -0.0007 | -0.0605 | 0.0057 | 0.0959 | 0.0609 | -0.0071 | -0.0295 | 0.0322 | -0.0005 | 0.0306 | 0 | -0.049 | -0.0247 | -0.0305 | 0.148 | 0.0639 | 0.0104
7 | C[C@@H](c1ccc2nccn2c1)n1nnc2ncc(-c3cnn(C)c3)nc21 [Savolitinib] + CC1(C)CCC(CN2CCN(c3ccc(C(=O)NS(=O)(=O)c4ccc(NCC5CCOCC5)c([N+](=O)[O-])c4)c(Oc4cnc5[nH]ccc5c4)c3)CC2)=C(c2ccc(Cl)cc2)C1 [Venetoclax] (first compound max 1 µM, 7x7, partner max 1 µM) | -0.0572 | -0.0048 | -0.0457 | -0.107 | -0.044 | -0.0529 | -0.0137 | -0.095 | -0.0176 | -0.0603 | -0.0578 | -0.0416 | -0.0115 | -0.0305 | -0.0664 | -0.0486 | -0.0679 | -0.105 | -0.0339 | 0.0324
8 | C[C@@H](c1ccc2nccn2c1)n1nnc2ncc(-c3cnn(C)c3)nc21 [Savolitinib] + Cc1c2c(nn1C)CSCc1cc(n(C)n1)CSc1cc(c3ccccc3c1)OCCCc1c(C(=O)O)n(C)c3c-2c(Cl)ccc13 [AZD5991] (first compound max 1 µM, 7x7, partner max 1 µM) | -0.0912 | -0.0034 | -0.0216 | -0.0687 | -0.052 | -0.0706 | 0.007 | -0.0595 | -0.0541 | -0.0658 | 0.0014 | -0.0451 | -0.0291 | -0.0491 | -0.0133 | -0.0163 | -0.0372 | -0.0142 | 0.0178 | -0.0413
9 | Cn1cnc2c(F)c(Nc3ccc(Br)cc3Cl)c(C(=O)NOCCO)cc21 [Selumetinib] + C=CCn1c(=O)c2cnc(Nc3ccc(N4CCN(C)CC4)cc3)nc2n1-c1cccc(C(C)(C)O)n1 [AZD1775] (first compound max 10 µM, partner max 1 µM) | -0.0796 | 0.0359 | -0.0332 | -0.0284 | -0.0485 | -0.0397 | -0.0356 | -0.125 | -0.0164 | 0.004 | -0.0804 | -0.0359 | 0.0147 | -0.052 | -0.0765 | 0.0223 | -0.0115 | 0.0076 | -0.0547 | -0.0124
10 | Cn1cnc2c(F)c(Nc3ccc(Br)cc3Cl)c(C(=O)NOCCO)cc21 [Selumetinib] + CC(C)n1c(=O)n(C)c2cnc3cc(F)c(-c4ccc(OCCCN5CCCCC5)nc4)cc3c21 [AZD1390] (first compound max 10 µM, 7x7, partner max 0.3 µM) | 0.0142 | -0.0183 | -0.0445 | -0.004 | -0.0427 | 0.0378 | 0.007 | -0.0693 | 0.01 | -0.0211 | -0.0449 | -0.0495 | -0.0022 | -0.0424 | -0.0388 | -0.0103 | -0.0563 | 0.0186 | -0.0312 | -0.0153
11 | Cn1cnc2c(F)c(Nc3ccc(Br)cc3Cl)c(C(=O)NOCCO)cc21 [Selumetinib] + CCN(CCO)CCCOc1ccc2c(Nc3cc(CC(=O)Nc4cccc(F)c4)[nH]n3)ncnc2c1 [AZD2811] (first compound max 10 µM, 7x7, partner max 1 µM) | -0.0153 | -0.0915 | -0.0748 | -0.026 | -0.0767 | -0.0232 | -0.0937 | -0.027 | 0.0374 | -0.0465 | -0.0264 | -0.0259 | -0.0324 | -0.0614 | 0.0107 | 0.0194 | -0.0303 | -0.0471 | 0.0253 | 0.0243
12 | Cn1cnc2c(F)c(Nc3ccc(Br)cc3Cl)c(C(=O)NOCCO)cc21 [Selumetinib] + C[C@@H]1COCCN1C2=NC(=NC(=C2)C3(CC3)[S@](=N)(=O)C)C4=C5C=CNC5=NC=C4 [AZD6738] (first compound max 10 µM, 7x7, partner max 10 µM) | 0.0209 | 0.0181 | -0.0671 | 0.0102 | -0.0651 | 0.0584 | 0.0613 | -0.0382 | -0.0117 | -0.0447 | -0.0627 | -0.132 | -0.0258 | -0.0657 | -0.0731 | 0.0385 | 0.0078 | -0.0289 | -0.0165 | -0.0263
13 | CC(=O)Nc1cccc(-n2c(=O)n(C3CC3)c(=O)c3c(Nc4ccc(I)cc4F)n(C)c(=O)c(C)c32)c1 [Trametinib] + Cc1nc(-c2cn3c(n2)-c2ccc(-c4cnn(C(C)(C)C(N)=O)c4)cc2OCC3)n(C(C)C)n1 [Taselisib] (first compound max 1 µM, 7x7, partner max 10 µM) | -0.0186 | 0.0528 | 0.166 | 0.213 | 0.021 | 0.124 | 0.0821 | 0.0152 | 0.156 | 0.0203 | 0.0654 | 0.0117 | 0.063 | 0.101 | -0.0862 | 0.189 | 0.19 | 0.129 | 0.164 | 0.165
14 | CC1(C)CCC(CN2CCN(c3ccc(C(=O)NS(=O)(=O)c4ccc(NCC5CCOCC5)c([N+](=O)[O-])c4)c(Oc4cnc5[nH]ccc5c4)c3)CC2)=C(c2ccc(Cl)cc2)C1 [Venetoclax] + C1CN(CCC1(C(=O)N[C@@H](CCO)C2=CC=C(C=C2)Cl)N)C3=NC=NC4=C3C=CN4 [Capivasertib] (first compound max 1 µM, 7x7, partner max 3 µM) | -0.0548 | -0.0078 | -0.0399 | -0.0382 | -0.0377 | -0.0469 | -0.0122 | -0.0095 | -0.0881 | -0.029 | -0.0427 | -0.0293 | -0.0482 | 0.0301 | -0.0205 | -0.0081 | -0.0394 | -0.0569 | -0.0275 | 0.0534
